Experiments:
[1] = Actual solubility of curcumin in lipids (laboratory experiment); format: physicochemical
Text: Table 2 Predicted versus actual results of curcumin solubility in different lipids. | column: Actual Solubility (mg/g)

[2] = In vitro drug release (dialysis bag, phosphate buffer pH 6.8, 37 °C); format: physicochemical
Experimental: The in vitro drug release research was conducted at 37 °C for 24 h in a phosphate buffer (pH 6.8).
The dialysis bag’s molecular weight threshold of 12–14 KDa was used to determine the in vitro drug release from the formulations [35, 82]. […] Regularly, new dissolution medium samples were taken from the dissolution medium and replaced. A volumetric flask filled with 10 Ml of methanol was treated with 1 mL of the filtrate after it was filtered through Whatman filter paper No. 1. As needed, additional dilutions were made. A spectrophotometric technique was used to analyze the materials. Calculations were made with the Korsmeyer and Peppas model and the PCP Disso Version 2.08 programmed [83, 84, 85, 86, 87, 88] to determine the time needed for 50 and 85% drug release, respectively.

[3] = In vitro gut permeation study; format: in vitro ADME; conditions: after 8 h
Experimental: The experimental protocol was approved by the Institutional Animal Ethical Committee (IAEC) with approval number CPCSEA/IAEC/JLS/16/9/21/13. Experiments on a fasted Wistar rat’s (weighing 250–300 g) small intestine were conducted in a laboratory setting. An intestinal segment was removed from a dead rat after euthanasia using CO2 inhalation and it was cut into lengths of 6–7 cm. […] In a beaker heated to 37 °C, the sac was submerged in an oxygenated Krebs Ringer solution (20 mL). The sink was maintained by removing and replacing aliquots of 1 mL every 0.5, 1, 1.5, 2, and 8 h with an equivalent volume of warm Krebs Ringer solution heated to 37 °C. Each aliquot’s medication concentration was measured using HPLC (n = 3). The HPLC system is equipped through a Shimadzu LC-10AD VP pump, a C18 Agilent column (Inertsil, 150 mm × 4.66 mm, […]), and a flow rate of 1 mL/min; the mobile phase has been degassed. It is made up of an acetonitrile, water, and methanol (50:10:40) ratio. The detector wavelength was set at 425 nm. The injection volume was 10 µL. The samples were measured after diluting suitably with methanol. Each formulation’s flow and permeability coefficients were calculated.
Papp(cm/sec)=(DQ/dt)(AxCO)

For `COc1cc(/C=C/C(=O)CC(=O)/C=C/c2ccc(O)c(OC)c2)ccc1O` [curcumin, Curcumin], the “Actual Solubility” value ([1]; in liquid lipid Castor oil) was 3.52 ± 0.52 mg/g, the “Actual Solubility” value ([1]; in liquid lipid Corn oil) was 1.06 ± 0.15 mg/g and the “Actual Solubility” value ([1]; in liquid lipid Grape seeds oil) was 0.59 ± 0.64 mg/g. For the same compound, the “Actual Solubility” value ([1]; in liquid lipid Oleic acid) was 4.61 ± 0.13 mg/g, the “Actual Solubility” value ([1]; in liquid lipid Olive oil) was 3.48 ± 0.34 mg/g and the “Actual Solubility” value ([1]; in liquid lipid Soybean oil) was 1.36 ± 0.26 mg/g. The “Actual Solubility” value ([1]; in solid lipid Cetosteryl) was 2.06 ± 0.13 mg/g, the “Actual Solubility” value ([1]; in solid lipid GMS) was 3.58 ± 0.03 mg/g and the “Actual Solubility” value ([1]; in solid lipid Palmitic acid) was 3.28 ± 0.06 mg/g. The “Actual Solubility” value ([1]; in solid lipid Stearic acid) was 2.62 ± 0.12 mg/g, the “Actual Solubility” value ([1]; in solid lipid Tri Palmitin) was 3.25 ± 0.30 mg/g and the “time to dissolve 50% of the curcumin” value [2] was “more than 24 h”. The Papp at 8 h ([3]; Wistar, rat gut, mucosal to serosal) was 4.88 ×10⁻⁶ cm/s, the “permeability through the rat gut” value [3] was 6.83 ± 1.53 mcg/cm^2/h and the “permeability and penetration release rate in the intestine and the gut” value ([3]; as printed in Conclusions) was 6.83 ± 1.53 mg/cm^2/h.

— publication PMC9965590, “Development of Computational In Silico Model for Nano Lipid Carrier Formulation of Curcumin” (Molecules, 2023)
